Data taken from patent US8222278B2, “Treatment of attention-deficit/hyperactivity disorder” (Abbott Laboratories, priority 2008, dated 2012).

How the values were obtained:
adults with ADHD [1] = test: Study A: ABT-894 Adult ADHD Dose-Ranging crossover clinical study, efficacy rating scales; type: in vivo, human
Experimental: (§1) A clinical study (Study A) was conducted to assess the safety and efficacy of ABT-894 compared to placebo in adults with ADHD and to evaluate the dose-response relationship.
A total of 243 subjects aged 18 to 60 years old meeting DSM-IV-TR criteria for ADHD were randomized across the 5 dose groups. Male or female patients were included. […] The disposition of the study subjects is further discussed with the study results below.
(§2) Subjects in each dose group received, in random order, both ABT-894 and placebo according to a 2×2 crossover design. Each treatment period was 4 weeks separated by a 2-week washout period.
Each site was assigned to one of two cohorts (Cohort A or Cohort B) in approximately a 3:2 ratio. Subjects in Cohort A were randomized in equal proportions to one of 6 treatment sequences in 3 dose groups, and subjects in Cohort B were randomized in equal proportions to one of 4 treatment sequences in 2 dose groups, as shown in Table 1. Within each dose group subjects received either ABT-894 or atomoxetine in Period 1 and placebo in Period 2, or placebo in Period 1 and ABT-894 or atomoxetine in Period 2.
The study medication was dispensed in the form of a capsule. Each capsule contained ABT-894, atomoxetine, or placebo. The capsules were made to look identical.
The primary efficacy endpoint was the Conners' Adult ADHD Rating Scale—Investigator Rated (CAARS:Inv) Total Score (18 items) at the final evaluation of each 4-week treatment period. The CAARS:Inv was assessed at baseline and Days 7. 14. 21, and 28 of each period. Each CAARS:Inv item was rated on a 4-point scale of frequency of occurrence (0=not at all, never; 3=very much. very frequently) during the previous 7 days.
(§3) Secondary efficacy endpoints included the CAARS:Inv Inattentive and Hyperactive/Impulsive Subscale Scores, Clinical Global Impression-ADHD-Severity Scale (CGI-ADHD-S). Adult ADHD Investigator Symptom Report Scale (AISRS), including total and subscales, and the Self-rated Connors Adult ADHD Rating Scale (CAARS-Self). Health outcomes including the Adult ADHD Quality of Life Scale (AAQoL) and Work Productivity and Activity Impairment Questionnaire (WPAI) were used to evaluate the validity of these scales in this study population for use in subsequent clinical trials.
The primary analysis was performed on each dose group separately according to the Statistical Analysis Plan (SAP). The primary statistical model that was used for analyzing the primary efficacy variable, the CAARS:INV total score, and all other secondary efficacy variables was determined by a SAP specified testing procedure. The comparability between two sequences for a given dose group with respect to the difference between period-specific baselines was tested using a one-way ANCOVA with the term of treatment and the Period I baseline as the covariate at the significance level of 0.10. The equal residual effect from Period I to Period II between two different sequences for a given dose group was tested using a standard model for cross-over data analysis, Grizzle model, on the term of “sequence” at the significance level of 0.10.
After the study blind was broken, across 5 dose groups. all the tests accepted the null hypothesis that there was no statistically significant treatment effect for the differences between the period-specific baselines. The tests also accepted the null hypothesis that there was no period residual effect in any of the dose groups. Accordingly, the Grizzle model was used as the primary analysis model to analyze treatment group difference for CAARS:INV total score at Day 28 for each dose group. The Grizzle Model was carried out by SAS PROC Mixed with the terms of study center. sequence, subjects within sequence, period, treatment, as well as period-specific baselines as covariates.
The primary efficacy dataset included all subjects who completed both periods of the study (completers dataset). […]

adults with ADHD [2] = test: Study A: patient-reported health outcomes (AAQoL, WPAI); type: in vivo, human; set-up: WPAI Absenteeism (employed), Mean Diff. / WPAI Impaired Work Effectiveness (employed), Mean Diff. / AAQoL Total, Mean Diff. / WPAI Overall Activity Impairment (all), Mean Diff. / WPAI Overall Work Impairment (employed), Mean Diff.: scale not given here
Experimental: as §1, §2, §3

adults with ADHD [3] = conditions: human, in vivo, 4 weeks
Experimental: During each visit, blood pressure, heart rate, weight, medication accountability and tolerability, and adverse effects were assessed.
The safety dataset consisted of all subjects who took at least one dose of study drug. The reasons for discontinuation and the treatment-emergent adverse events were summarized by the treatment under which the discontinuation or event was reported.
Treatment-emergent adverse events were those that began or worsened following the first dose of study drug in Period 1. Adverse event monitoring was conducted at each study visit and until 30 days following discontinuation of study drug. Other routine safety assessments included vital signs, electrocardiograms, physical examinations, brief neurological examinations and laboratory tests.

[4] = ABT-894 1 mg QD, day 28, completers N = 40
[5] = ABT-894 2 mg QD, day 28, completers N = 37
[6] = ABT-894 4 mg BID, day 28, completers N = 43
[7] = ABT-894 4 mg QD, day 28, completers N = 36

Clc1cc(N2C[C@@H]3CN[C@@H]3C2)cnc1Cl [ABT-894, 3-(5,6-Dichloro-pyridin-3-yl)-1S,5S-3,6-diazabicyclo[3.2.0]heptane]
AISRS Hyperactivity Score, mean difference from placebo (adults with ADHD [1]; [4]): 1.53 (−0.8, 3.8) | AISRS Inattention Score, mean difference from placebo (adults with ADHD [1]; [4]): 1.72 (−0.6, 4.1) | AISRS Total Score, mean difference from placebo (adults with ADHD [1]; [4]): 3.19 (−1.2, 7.6) | CAARS:Inv ADHD Index, mean difference from placebo (adults with ADHD [1]; [4]): 1.84 (−0.0. 3.7) | CAARS:Inv Hyperactive/Impulsive subscale score, mean difference from placebo (adults with ADHD [1]; [4]): 0.93 (−0.2, 2.0) | CAARS:Inv Inattentive subscale score, mean difference from placebo (adults with ADHD [1]; [4]): 0.94 (−1.5, 3.4) | CAARS:Inv Total Score, mean difference from placebo (adults with ADHD [1]; [4]): 2.11 (−2.4, 6.6) | CAARS:Self ADHD Index, mean difference from placebo (adults with ADHD [1]; [4]): 2.04 (0.2, 3.9) | CAARS:Self Hyperactivity Score, mean difference from placebo (adults with ADHD [1]; [4]): 0.68 (−0.4, 1.8) | CAARS:Self Impulsivity Score, mean difference from placebo (adults with ADHD [1]; [4]): 0.65 (−0.1, 1.4) | CAARS:Self Inattention/Memory Score, mean difference from placebo (adults with ADHD [1]; [4]): 0.60 (−0.5, 1.7) | CAARS:Self Problem with Self-concept Score, mean difference from placebo (adults with ADHD [1]; [4]): 0.51 (−0.2, 1.2) | CAARS:Self Total Score, mean difference from placebo (adults with ADHD [1]; [4]): 3.57 (−0.4, 7.5) | CGI-ADHD-S, mean difference from placebo (adults with ADHD [1]; [4]): 0.04 (−0.3, 0.4) | Measures of sustained attention, inhibitory control, and executive function (adults with ADHD [1]; ABT-894 2 mg QD): improved measures of sustained attention, inhibitory control, and executive function | AISRS Hyperactivity Score, mean difference from placebo (adults with ADHD [1]; [5]): −1.11 (−3.0, 0.7) | AISRS Inattention Score, mean difference from placebo (adults with ADHD [1]; [5]): −1.59 (−3.6, 0.4) | AISRS Total Score, mean difference from placebo (adults with ADHD [1]; [5]): −2.72 (−6.4, 1.0) | CAARS:Inv ADHD Index, mean difference from placebo (adults with ADHD [1]; [5]): −1.52 (−3.3, 0.2) | CAARS:Inv Hyperactive/Impulsive subscale score, mean difference from placebo (adults with ADHD [1]; [5]): −0.55 (−1.4, 0.3) | CAARS:Inv Inattentive subscale score, mean difference from placebo (adults with ADHD [1]; [5]): −1.92 (−3.8, −0.1) | CAARS:Inv Total Score, mean difference from placebo (adults with ADHD [1]; [5]): −3.18 (6.7,0.3) | CAARS:Self ADHD Index, mean difference from placebo (adults with ADHD [1]; [5]): −1.50 (−3.3, 0.3) | CAARS:Self Hyperactivity Score, mean difference from placebo (adults with ADHD [1]; [5]): −0.57 (−1.4, 0.3) | CAARS:Self Impulsivity Score, mean difference from placebo (adults with ADHD [1]; [5]): −0.48 (−1.3, 0.3) | CAARS:Self Inattention/Memory Score, mean difference from placebo (adults with ADHD [1]; [5]): −0.23 (−1.2, 0.8) | CAARS:Self Problem with Self-concept Score, mean difference from placebo (adults with ADHD [1]; [5]): −0.57 (−1.6, 0.5) | CAARS:Self Total Score, mean difference from placebo (adults with ADHD [1]; [5]): −2.64 (−6.6, 1.3) | CGI-ADHD-S, mean difference from placebo (adults with ADHD [1]; [5]): −0.31 (−0.6, 0.0) | Efficacy measures compared with atomoxetine (adults with ADHD [1]; ABT-894 4 mg BID vs atomoxetine): comparable across efficacy measures | AISRS Hyperactivity Score, mean difference from placebo (adults with ADHD [1]; [6]): −3.58 (−5.6, −1.6) | AISRS Inattention Score, mean difference from placebo (adults with ADHD [1]; [6]): −4.26 (−6.6, −1.9) | AISRS Total Score, mean difference from placebo (adults with ADHD [1]; [6]): −8.07 (−12.2, −3.9) | CAARS:Inv ADHD Index, mean difference from placebo (adults with ADHD [1]; [6]): −3.37 (−5.3. −1.4) | CAARS:Inv Hyperactive/Impulsive subscale score, mean difference from placebo (adults with ADHD [1]; [6]): −1.90 (−3.0, −0.8) | CAARS:Inv Inattentive subscale score, mean difference from placebo (adults with ADHD [1]; [6]): −4.08 (−6.4, −1.7) | CAARS:Self ADHD Index, mean difference from placebo (adults with ADHD [1]; [6]): −3.31 (−5.2, −1.4) | CAARS:Self Hyperactivity Score, mean difference from placebo (adults with ADHD [1]; [6]): −1.74 (−2.9, −0.6) | CAARS:Self Impulsivity Score, mean difference from placebo (adults with ADHD [1]; [6]): −0.70 (−1.4, −0.0) | CAARS:Self Inattention/Memory Score, mean difference from placebo (adults with ADHD [1]; [6]): −1.40 (−2.5, −0.3) | CAARS:Self Problem with Self-concept Score, mean difference from placebo (adults with ADHD [1]; [6]): −1.39 (−2.5, −0.3) | CAARS:Self Total Score, mean difference from placebo (adults with ADHD [1]; [6]): −7.34 (−11.6, −3.1) | CGI-ADHD-S, mean difference from placebo (adults with ADHD [1]; [6]): −0.58 (−1.0, −0.2) | AISRS Hyperactivity Score, mean difference from placebo (adults with ADHD [1]; [7]): −0.81 (−2.6, 1.0) | AISRS Inattention Score, mean difference from placebo (adults with ADHD [1]; [7]): 0.81 (−1.2, 2.8) | AISRS Total Score, mean difference from placebo (adults with ADHD [1]; [7]): −0.13 (−3.6, 3.4) | CAARS:Inv ADHD Index, mean difference from placebo (adults with ADHD [1]; [7]): −0.12 (−1.8, 1.5) | CAARS:Inv Hyperactive/Impulsive subscale score, mean difference from placebo (adults with ADHD [1]; [7]): −1.07 (−2.1, −0.0) | CAARS:Inv Inattentive subscale score, mean difference from placebo (adults with ADHD [1]; [7]): 0.60 (−1.5, 2.7) | CAARS:Inv Total Score, mean difference from placebo (adults with ADHD [1]; [7]): 0.23 (−3.2, 3.7) | CAARS:Self ADHD Index, mean difference from placebo (adults with ADHD [1]; [7]): −0.19 (−1.9, 1.5) | CAARS:Self Hyperactivity Score, mean difference from placebo (adults with ADHD [1]; [7]): −0.78 (−1.8, 0.2) | CAARS:Self Impulsivity Score, mean difference from placebo (adults with ADHD [1]; [7]): −0.02 (−0.9, 0.9) | CAARS:Self Inattention/Memory Score, mean difference from placebo (adults with ADHD [1]; [7]): 0.11 (−0.9, 1.2) | CAARS:Self Problem with Self-concept Score, mean difference from placebo (adults with ADHD [1]; [7]): 0.33 (−0.7, 1.4) | CAARS:Self Total Score, mean difference from placebo (adults with ADHD [1]; [7]): −1.13 (−5.2, 2.9) | CGI-ADHD-S, mean difference from placebo (adults with ADHD [1]; [7]): −0.06 (−0.3, 0.2) | Efficacy in the treatment of the core symptoms of ADHD (adults with ADHD [1]; human patients, compared to placebo): statistically significant efficacy compared to placebo | Measures of quality of life relative to placebo (adults with ADHD [2]; ABT-894 2 mg QD): improved measures of quality of life relative to placebo | WPAI Impaired Work Effectiveness (employed), Mean Diff. (adults with ADHD [2]; ABT-894 4 mg BID, N 22): −0.104 | WPAI Overall Work Impairment (employed), Mean Diff. (adults with ADHD [2]; ABT-894 4 mg BID, N 22): −0.093 | WPAI Overall Activity Impairment (all), Mean Diff. (adults with ADHD [2]; ABT-894 4 mg BID, N 43): −0.108 | Influenza-like illness, % of subjects (adults with ADHD [3]): (0) % | Influenza-like illness, number of subjects (adults with ADHD [3]): 0 subjects
